What was measured:
[1] = Apparent permeability from apical to basolateral side in human Caco2 cells; assay type: ADME, cell-based; settings: Caco-2
[2] = Lipophilicity, log D of the compound at pH 7.4 by shake flask method; assay type: physicochemical; settings: buffer
[3] = Intrinsic clearance in human microsomes assessed per mg protein; assay type: ADME, Microsome; settings: read-out: CLH

SMILES | Papp A→B [1] [×10⁻⁶ cm/s] | logD [2] | microsomal CLint [3] [µL/min/mg]
CN(C)[C@H]1CC[C@H](Nc2ncnc3cc[nH]c23)CC1 |  | -0.3 | < 3
CN(C)[C@H]1CC[C@H](Nc2ncnc3ccsc23)CC1 |  | -0.2 | 
CN(C)[C@H]1CC[C@H](Nc2ncnc3ccn(C4CCOCC4)c23)CC1 |  | -0.6 | 

The remaining lines, values ahead:

Papp A→B [1] [×10⁻⁶ cm/s] | logD [2] | microsomal CLint [3] [µL/min/mg] | SMILES
36 | 0.2 |  | Cc1ccn2ncnc(N[C@H]3CC[C@H](N(C)C)CC3)c12
 | -0.8 |  | Cn1ccc2ncnc(N[C@H]3CC[C@H](N(C)C)CC3)c21
 | 0 | < 3 | CN(C)[C@H]1CC[C@H](Nc2ncnn3cccc23)CC1
 | 0.3 | 39 | CN(C)[C@H]1CC[C@H](Nc2ncnc3cscc23)CC1
 | -0.7 |  | CN(C)[C@H]1CC[C@H](Nc2ncnc3ccoc23)CC1
